Laboratory results published in article PMC12627933, “A First-In-Human Study of the SUMOylation Inhibitor Subasumstat in Patients with Advanced/Metastatic Solid Tumors or Relapsed/Refractory Hematologic Malignancies” (Cancer Research Communications, 2025).

Assay: Safety: treatment-emergent adverse events (NCI CTCAE v5.0; CRS per ASTCT), phase I/II study NCT03648372
Format: in vivo
Protocol: This study comprised two parts: a phase I dose escalation and a phase II dose expansion (Fig. 1). In the dose-escalation phase, patients were enrolled to receive subasumstat intravenously as a 1-hour (±10 minutes) infusion on days 1, 4, 8, and 11 of a 21-day cycle (biweekly schedule). […] Dose escalation was based on cohort with an adaptive design using Bayesian logistic regression modeling with overdose control. The starting dose of subasumstat was based on Good Laboratory Practice animal toxicity studies and supported by the estimation of a minimum anticipated biologically effective level. A detailed description of dose-limiting toxicities (DLT) is presented in the Supplementary Methods.
The phase II dose-expansion portion enrolled patients to receive the recommended phase II dose (RP2D) determined in phase I, with each cohort assessed separately using an adaptive two-stage design for a single proportion (see Supplementary Methods). For stage 1, each cohort was analyzed when a prespecified number of patients were enrolled and had the potential to have at least one posttreatment scan [i.e., after the first disease assessment, 2 months from cycle 1 day 1 (C1D1)]. If the prespecified minimal response rate was not achieved in the first stage for a given cohort, that cohort would be closed to enrollment. […] The final analysis of the primary endpoints for each cohort would take place when all ongoing patients had the opportunity to complete the 6-month disease assessment. Across both phases, patients received subasumstat for up to 1 year or until confirmed disease progression, unacceptable toxicity, if any withdrawal criterion from the study was met, or if discontinuation of subasumstat occurred.
The occurrence of DLTs was assessed during cycle 1 (DLTs are described in the Supplementary Methods). Treatment-emergent adverse events (TEAE) were graded according to NCI Common Terminology Criteria for Adverse Events version 5.0, except for cytokine release syndrome (CRS), which was graded according to the American Society for Transplantation and Cellular Therapy Consensus Grading for CRS ([20]).
It was anticipated that approximately 70 DLT-evaluable patients would be enrolled for dose escalation. The safety analysis set included all patients who received at least one dose, even if incomplete, of subasumstat. […] The overall response rate (ORR) was defined as the proportion of patients who achieved complete response and partial response (PR) during the study. The disease control rate (DCR) was defined as the proportion of patients who achieved […] as per RECIST v1.1 for solid tumors or Lugano classification for lymphomas. […] Progression-free survival was summarized descriptively using the Kaplan–Meier method.

## Cc1sc(C(=O)c2cncnc2N[C@@H]2C[C@H](COS(N)(=O)=O)[C@@H](O)C2)cc1[C@@H]1NCCc2ccc(Cl)cc21 [subasumstat]
Phase II (n = 25)
  Subasumstat-related TEAE: Nausea: 4 (16.0) n (%)
  Subasumstat-related TEAE: Pyrexia: 9 (36.0) n (%)
  Subasumstat-related TEAE: Vomiting: 1 (4.0) n (%)
  TEAE: Abdominal distension: 1 (4.0) n (%)
  TEAE: Abdominal pain: 4 (16.0) n (%)
  TEAE: Anemia: 7 (28.0) n (%)
  TEAE: Arthralgia: 5 (20.0) n (%)
  TEAE: Back pain: 2 (8.0) n (%)
  TEAE: CRS: 3 (12.0) n (%)
  TEAE: Chills: 8 (32.0) n (%)
  TEAE: Constipation: 2 (8.0) n (%)
  TEAE: Decreased appetite: 5 (20.0) n (%)
  TEAE: Dehydration: 2 (8.0) n (%)
  TEAE: Diarrhea: 10 (40.0) n (%)
  TEAE: Dyspnea: 4 (16.0) n (%)
  TEAE: Fatigue: 9 (36.0) n (%)
  TEAE: Headache: 7 (28.0) n (%)
  TEAE: Hypophosphatemia: 0 n (%)
  TEAE: Insomnia: 2 (8.0) n (%)
  TEAE: Nausea: 4 (16.0) n (%)
  TEAE: Peripheral edema: 2 (8.0) n (%)
  TEAE: Pleural effusion: 3 (12.0) n (%)
  TEAE: Pyrexia: 11 (44.0) n (%)
  TEAE: Stomatitis: 3 (12.0) n (%)
  TEAE: Vomiting: 2 (8.0) n (%)
  TEAEs: 24 (96.0) n (%)
  TEAEs leading to discontinuation: 4 (16.0) n (%)
  TEAEs leading to discontinuation related to subasumstat: 1 (4.0) n (%)
  TEAEs related to subasumstat: 22 (88.0) n (%)
Total (N = 109)
  AESI (adverse event of special interest): 12 (11.0) n (%)
  AESI related to subasumstat: 12 (11.0) n (%)
  AESI: CRS: 12 (11.0) n (%)
  Grade ≥3 TEAE: Abdominal pain: 6 (5.5) n (%)
  Grade ≥3 TEAE: Acute kidney injury: 4 (3.7) n (%)
  Grade ≥3 TEAE: Anemia: 14 (12.8) n (%)
  Grade ≥3 TEAE: Aspartate aminotransferase increased: 2 (1.8) n (%)
  Grade ≥3 TEAE: Blood bilirubin increased: 2 (1.8) n (%)
  Grade ≥3 TEAE: Dyspnea: 4 (3.7) n (%)
  Grade ≥3 TEAE: Fatigue: 5 (4.6) n (%)
  Grade ≥3 TEAE: Hyperbilirubinemia: 2 (1.8) n (%)
  Grade ≥3 TEAE: Hypertension: 2 (1.8) n (%)
  Grade ≥3 TEAE: Hypokalemia: 7 (6.4) n (%)
  Grade ≥3 TEAE: Hypomagnesemia: 2 (1.8) n (%)
  Grade ≥3 TEAE: Hypophosphatemia: 2 (1.8) n (%)
  Grade ≥3 TEAE: Lymphocyte count decreased: 5 (4.6) n (%)
  Grade ≥3 TEAE: Lymphopenia: 2 (1.8) n (%)
  Grade ≥3 TEAE: Muscular weakness: 2 (1.8) n (%)
  Grade ≥3 TEAE: Nausea: 2 (1.8) n (%)
  Grade ≥3 TEAE: Neutropenia: 4 (3.7) n (%)
  Grade ≥3 TEAE: Platelet count increased: 3 (2.8) n (%)
  Grade ≥3 TEAE: Pleural effusion: 2 (1.8) n (%)
  Grade ≥3 TEAE: Pneumonia: 2 (1.8) n (%)
  Grade ≥3 TEAE: Pneumonitis: 2 (1.8) n (%)
  Grade ≥3 TEAE: Pyrexia: 2 (1.8) n (%)
  Grade ≥3 TEAE: Small intestinal obstruction: 4 (3.7) n (%)
  Grade ≥3 TEAE: Thrombocytopenia: 2 (1.8) n (%)
  Grade ≥3 TEAE: Vomiting: 4 (3.7) n (%)
  Grade ≥3 TEAEs: 66 (60.6) n (%)
  Grade ≥3 TEAEs related to subasumstat: 29 (26.6) n (%)
  On-study deaths: 12 (11.0) n (%)
  Patients with at least one grade ≥3 TEAE: 66 (60.6) n (%)
  Serious adverse events: 48 (44.0) n (%)
  Serious adverse events related to subasumstat: 12 (11.0) n (%)
  TEAE: Abdominal distension: 12 (11.0) n (%)
  TEAE: Abdominal pain: 21 (19.3) n (%)
  TEAE: Anemia: 19 (17.4) n (%)
  TEAE: Arthralgia: 17 (15.6) n (%)
  TEAE: Back pain: 14 (12.8) n (%)
  TEAE: CRS: 12 (11.0) n (%)
  TEAE: Chills: 28 (25.7) n (%)
